Measured values reported in patent publication US20240165123A1, “USE OF A COMPOUND CONTAINING A TRICYCLIC HETEROARYL GROUP” (CSPC Zhongqi Pharmaceutical Technology (Shijiazhuang) Co., …, priority 2021, published 2024).
Read-outs that look alike come from different tables or passages of the source.

Tested on: MRL/lpr lupus erythematosus model mice
Format: in vivo
Set-up: key to Kidney IHC (IgG) pathological score, bilateral kidneys: product score; 0 negative, 1-3 low, 4-8 medium, 9-12 high
Conditions: prednisone 6 mg/kg QD
Protocol: • female MRL/lpr mice aged 4 weeks, number: 50; • female C57BL/6 mice aged 4 weeks, number: 10.
According to the concentration of the serum anti-ds-DNA antibody, female MRL/lpr mice were randomly divided into five groups: model group: solvent (aqueous solution containing 0.4% Tween 80 and 0.5% methylcellulose) 10 mL/kg BID, positive control group: prednisone 6 mg/kg QD, compound (I) 20, 40 and 60 mg/kg BID groups, the administration volumes respectively: 10 mL/kg. In addition, female C57BL/6 mice served as the normal control group. The animals in the Compound (I) group and the model group were administrated with the medicament or the solvent by gavage twice a day starting from the beginning of five weeks of age with an interval of 8 hours between two administrations; prednisone was administered to the animals by gavage once a day from the beginning of five weeks of age; the administration was totally performed for 17 weeks.
Two mice in the model group died at 15 and 16 weeks of administration, respectively, and 8 mice remained at the end of the test; one mouse in the compound (I) 20 mg/kg bid group died in the later period of the 16th week of administration, and 9 mice remained at the end of the test; and no death of mice occurred in other groups.
The skin destructions on the face, ears and back of mice were observed and scored once a week for 17 times totally.
Scoring system: 1) red swelling and bleeding of the skin; 2) the extent of hair loss and skin dryness; 3) edema; 4) excoriation/corrosion; 5) lichenoid sclerotic plaque and other symptoms. The score of each item was as follows: normal=0 points; slight=1 point; moderate=2 points; severe=3 points. The severity of skin destruction was determined according to the total score of each evaluated symptom. […]
The lymph nodes of MRL/lpr mice were scored once a week for a total of 17 times during the test.
According to the lymph node diameter (cm), the score values were 0-6 points: • 0 point: normal; • 1 point: small (the diameter at one location of points on both sides was less than 1 cm); • 2 points: small (the diameters at two location of points on both sides were less than 1 cm); • 3 points: small (the diameters at three location of points on both sides were less than 1 cm); • 4 points: large (the diameter at one location of points on both sides was larger than 1 cm, the diameters at the other two location of points on both sides were less than 1 cm); • 5 points: large (the diameters at two location of points on both sides were larger than 1 cm, and the diameter at the other location of points on both sides was less than 1 cm); • 6 points: large (the diameters at three location of points on both sides were greater than 1 cm). […]
Kidney HE scoring criteria: […]
During the test, the concentration of serum anti-ds-DNA antibody of mice were detected every 4 weeks for 16 weeks.
At the end of the test, the serum cytokine levels of mice were detected by ELISA. […] See Table 25 and FIG. 17 for details.

## C[C@]12C=CC(=O)C=C1CC[C@@H]1[C@@H]2C(=O)C[C@@]2(C)[C@H]1CC[C@]2(O)C(=O)CO [prednisone, reference compound]
16 weeks
  Area under the urine protein curve: 2360.38 ± 161.30 wk*mg/L
After 17 weeks of treatment
  Kidney HE pathological score of both kidneys, Activity index: 1.80 ± 0.36
  Kidney HE pathological score of both kidneys, Chronicity index: 4.90 ± 0.62
  Kidney HE pathological score of both kidneys, Tubulointerstitial lesions: 3.60 ± 0.45
  Kidney IHC (IgG) pathological score, bilateral kidneys: 7.90 ± 0.77
  Skin HE pathological score: 1.80 ± 0.36
  Total kidney weight: 0.3526 ± 0.01 g
  Total kidney weight/body weight %: 1.1050 ± 0.04%
End of the test
  IL-6 concentration in serum (ELISA): 19.91 ± 10.43 pg/mL
  Spleen weight: 0.0756 ± 0.01 g
  Spleen weight/body weight %: 0.2362 ± 0.03 %
  TNF-alpha concentration in serum (ELISA): 5.50 ± 1.13 pg/mL
  Total lymph node weight: 0.1123 ± 0.03 g
  Total lymph node weight/body weight %: 0.3445 ± 0.08 %
Week 0
  Concentration of serum anti-ds-DNA antibody: 3.26 ± 0.30 µg/mL
  Lymph node score: 0.0 ± 0.00
  Skin score (skin destruction): 0.0 ± 0.00
Week 4
  Concentration of serum anti-ds-DNA antibody: 183.55 ± 28.07 µg/mL
  Skin score (skin destruction): 0.0 ± 0.00
Week 6
  Lymph node score: 0.0 ± 0.00
Week 7
  Lymph node score: 0.2 ± 0.13
Week 8
  Concentration of serum anti-ds-DNA antibody: 363.75 ± 18.45 µg/mL
  Skin score (skin destruction): 0.3 ± 0.15
Week 9
  Lymph node score: 0.3 ± 0.15
Week 11
  Lymph node score: 0.0 ± 0.00
Week 12
  Concentration of serum anti-ds-DNA antibody: 619.78 ± 25.47 µg/mL
  Lymph node score: 0.0 ± 0.00
  Skin score (skin destruction): 0.3 ± 0.15
Week 14
  Skin score (skin destruction): 0.2 ± 0.13
Week 16
  Concentration of serum anti-ds-DNA antibody: 606.66 ± 26.65 µg/mL
  Skin score (skin destruction): 0.1 ± 0.10
Week 17
  Lymph node score: 0.0 ± 0.00
  Skin score (skin destruction): 0.1 ± 0.10
